Data reported in BindingDB's records for doi:10.1021/jm00350a009 (1982).

assay: Compound was tested for inhibition of [3H]dihydroalprenolol radioligand binding to Beta-1 adrenergic receptor in dog heart.

SMILES | IC50 [nM]
CC(C)(C)NC[C@H](O)CON=C1c2ccccc2-c2ccccc21 | 29
Cc1ccc(OCC(O)CNC(C)C)c2c1CCC2 (centres undefined) [1-Isopropylamino-3-(7-methyl-indan-4-yloxy)-propan-2-ol] | 186
CC(C)(C)NC[C@@H](O)CON=C1c2ccccc2-c2ccccc21 | 43
CC(C)(C)NCC(O)CON=C1c2ccccc2-c2ccccc21 (centres undefined) [Fluoren-9-one O-(3-tert-butylamino-2-hydroxy-propyl)-oxime] | 38
